For series [1] the following is noted: spray table water, initial pH 6.3, 60° F. As to the method:
Water samples were taken from the spray table of a sugar beet factory. […] The hydrogen peroxide concentration was measured periodically over a 60 minute period. The oxidation-reduction potential (ORP) was measured over the same period.

The conditions of series [2]: flume return (clarifier inlet) water, initial pH 6.4, 62° F. As to the method: Water samples were taken from the flume return (clarifier inlet) in a sugar beet factory. […] The hydrogen peroxide concentration was measured periodically over a 60 minute period. The oxidation-reduction potential (ORP) was measured over the same period.
Where [3] appears, read: initial dose 60 ppm, time 5 min.
Setting [4] is: initial dose 60 ppm, time 30 min.
Setting [5] is: initial dose 60 ppm, time 45 min.
Where [6] appears, read: initial dose 60 ppm, time 60 min.
[7] abbreviates: initial dose 120 ppm, time 5 min.
[8] abbreviates: initial dose 120 ppm, time 30 min.
[9] abbreviates: initial dose 120 ppm, time 45 min.
[10] abbreviates: initial dose 120 ppm, time 60 min.
[11] abbreviates: initial dose 180 ppm, time 5 min.
Where [12] appears, read: initial dose 180 ppm, time 30 min.
[13] abbreviates: initial dose 180 ppm, time 45 min.
Setting [14] is: initial dose 180 ppm, time 60 min.

Where two headings read alike, the source gives them in different places. Where only a bound is given, the exact number is not on record here.

On to `OO` [H2O2, hydrogen peroxide], for which the H2O2 concentration was 50 ppm in series [1] (setting [3]); 5 ppm in series [1] (setting [4]); 0.5 ppm in series [1] (setting [5]); under 0.5 ppm in series [1] (setting [6]); over 100 ppm in series [1] (setting [7]); 15 ppm in series [1] (setting [8]). The H2O2 concentration was 2 ppm in series [1] (setting [9]); 1 ppm in series [1] (setting [10]); over 100 ppm in series [1] (setting [11]); 25 ppm in series [1] (setting [12]); 5 ppm in series [1] (setting [13]); 3 ppm in series [1] (setting [14]). The H2O2 concentration is on record as 50 ppm in series [2] (setting [3]); 3 ppm in series [2] (setting [4]); 0.5 ppm in series [2] (setting [5]); 0 ppm in series [2] (setting [6]); over 100 ppm in series [2] (setting [7]); 10 ppm in series [2] (setting [8]). In addition, the H2O2 concentration in series [2] (setting [9]) is reported as 3 ppm; in series [2] (setting [10]), under 0.5 ppm; in series [2] (setting [11]) it was over 100 ppm; in series [2] (setting [12]), 25 ppm; in series [2] (setting [13]), 5 ppm; in series [2] (setting [14]), 1 ppm.

These data come from US11332395B2, “Sanitary food washing stage in food production” (CHEMTREAT, INC., priority 2019, dated 2022).
